Measured values: patent publication US11679082B2, “Therapeutic constructs for co-delivery of mitotic kinase inhibitor and immune checkpoint inhibitor” (Oregon Health & Science University, priority 2019, dated 2023)

Experiments:
[1] = system: PD-L1; test: PD-L1 surface expression of LLC-JSP cells by flow cytometry; assay type: cell-based, mouse; details: 500 ng/ml inhibitor
Excerpt: FIGS. 3A-3C. […] (FIG. 3A) PLK1 and PD-L1 mRNA expression in A549 (human NSCLC) at 48 hr post treatment with PLK1 siRNA (siPLK1) or scrambled siRNA (siSCR) normalized to HPRT housekeeping gene. Data presented as mean±SD from triplicates; ****P<0.0001. (FIG. 3B) PD-L1 surface expression of A549 ([…]) and LLC-JSP (a mouse NSCLC, FIG. 3C) at 72 hr post treatments assessed by flow cytometry (10,000 events per sample). Mouse siPLK1 seq. […] (SEQ ID NO: 1); Human siPLK1 seq. […] (SEQ ID NO: 2).
FIGS. 4A-4C Treatment effects of mitotic kinase inhibitors on (A) 3-day viability of LLC-JSP cells, (B) PD-L1 expression levels of surviving cells post treatment with 500 ng/ml of volasertib, alisertib, or AZD7762 as determined by flow cytometry and (C) their quantification.
FIGS. 6A-6D Nanoparticle delivery of PLK1 inhibitor volasertib (iPLK1-NP) to mouse NSCLC cells. (FIG. 6A) Schematic of synthesis of iPLK1-NP. (FIG. 6B) Hydrodynamic size of NP (with no inhibitor) and iPLK1-NP measured with Zetasizer. (FIG. 6C) Viability of LLC-JSP cells treated with volasertib (in 1% DMSO/PBS), iPLK1-NP (in PBS), or 1% DMSO/PBS for 4 days. Data presented as mean±SD from 4 independent samples; ****P<0.0001. (FIG. 6D) PD-L1 surface expression of LLC-JSP cells treated with PBS or iPLK1-NP (42 μg/ml NP, 210 ng/ml volasertib) for 3 days.
FIGS. 7A-7E. Nanoparticle for co-delivery of PLK1 inhibitor (iPLK1) and PD-L1 antibody (p-iPLK1-NP). (FIG. 7A) Schematic and (FIG. 7B) hydrodynamic size of p-iPLK1-NP containing 4 wt. % of PD-L1 antibody and 0.5 wt. % of PLK1 inhibitor. (FIG. 7C) 5-day cell viability of LLC-JSP cells treated with iPLK1-NP or p-iPLK1-NP. Data presented as mean±SD from 4 independent samples; ns—not significant. PD-L1 surface expression assessed by flow cytometry after LLC-JSP cells were incubated with various treatments as specified for (FIG. 7D) 2 hrs and (FIG. 7E) 2 days. […]
Flow cytometry: Cells (100K cells/well) were plated in 6 well plates overnight and treated with indicated treatments the next day. […] Cells were then washed with FACs buffer and analyzed with Guava (50,000 events per sample).

[2] = system: A549; test: Cell cycle arrest in G2/M phase in A549; assay type: cell-based, human; details: A549, 72 hr post treatment; siRNA 50 nM, BI 2536 10 nM
Method: FIGS. 2A-2D. Effects of siRNA against mitotic regulator PLK1 (siPLK1) on non-small-cell lung carcinoma (NSCLC) cell lines (A549 and H460). (FIG. 2A) 48-hr PLK1 mRNA knockdown (HPRT used as house-keeping gene) and (FIG. 2B) 72-hr PLK1 protein reduction at 50 nM siRNA dose. (FIG. 2C) 4-day cell viability at 30 nM siRNA dose. (FIG. 2D) Cell cycle arrest increase in G2/M phase in A549 72 hr post treatment. Antibody (cetuximab) conjugated NP was used to deliver the siPLK1 (C-siPLK1-NP) or scrambled siRNA control (C-siSCR-NP) at 50 nM siRNA BI 2536 (a PLK1 inhibitor) was used as a drug benchmark at 10 nM. Data presented as mean±SD from independent duplicates (10,000 events per sample); ****P<0.0001 vs. untreat control. Unless specified otherwise, “NP” denotes mesoporous silica nanoparticles coated with cross-linked PEI and PEG, as described in Ngamcherdtrakul et al., Advanced Functional Materials, 25(18):2646-2659, 2015 and U.S. Patent Application Publication No. 2017/0173169.

[3] = system: LLC-JSP cells; test: Cell viability of LLC-JSP cells (Cell Titer Glo); assay type: cell-based, mouse; details: 4 days, dose-dependent
Method: (FIG. 14B) Treatment effect of ADC versus free alisertib of equivalent dose on viability of LLC-JSP cells (2-days). […] (FIG. 14C) Effect of PD-L1 on the viability of LLC-JSP cells.
Cell viability after treatments: Cells (1500/well) were plated in white flat bottom 96 well plate overnight. The following day, cells were treated with indicated treatments and media was changed 24 hr post treatment. 3-5 day post treatment, cell viability was assessed using Cell Titer Glo assay (Promega) following manufacturer's instructions. Luminescence was read with Tecan plate reader.

[4] = system: lung cancer; details: phase II, 300 mg once every 3 weeks; cited from earlier work
[5] = system: acute myeloid leukemia; details: phase III; cited from earlier work

Compound | surface PD-L1 level of surviving cells [1] | cell cycle arrest in G2/M [2] | viability of LLC-JSP cells vs vehicle [3] | response as monotherapy [4] | primary endpoint of objective response [5]
NC(=O)Nc1cc(-c2cccc(F)c2)sc1C(=O)N[C@H]1CCCNC1 [AZD7762] | upregulated surface PD-L1 level |  |  |  | 
CC[C@@H]1C(=O)N(C)c2cnc(Nc3ccc(C(=O)NC4CCN(C)CC4)cc3OC)nc2N1C1CCCC1 [B12536] |  | G2/M growth arrest |  |  | 
COc1cc(Nc2ncc3c(n2)-c2ccc(Cl)cc2C(c2c(F)cccc2OC)=NC3)ccc1C(=O)O [alisertib] | upregulated surface PD-L1 level |  |  |  | 
CC[C@@H]1C(=O)N(C)c2cnc(Nc3ccc(C(=O)N[C@H]4CC[C@H](N5CCN(CC6CC6)CC5)CC4)cc3OC)nc2N1C(C)C [volasertib] | upregulated surface PD-L1 level |  | significantly reduced cell viability | lack of response | failed to meet primary endpoint of objective response
